This note sets out measurements from PubChem BioAssay AID493003 (Sanford-Burnham Center for Chemical Genomics, 2010).

The source made the active and inactive calls. The rule behind the calls is not given here.

The test system of this assay is S. cerevisiae tim10-1 mutant growth, luminescence. Put plainly: growth inhibitors of tim10-1 mutant yeast, dose response, luminescence, S. cerevisiae, uHTS hits (AID 493003).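 Note: yeast growth measured after about 22 hours at 25 °C.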
Turning to `Cc1cc(C)n(-c2nc(-n3nc(C)cc3C)c3c4c(sc3n2)COC(C)(C)C4)n1`, the concentration for half-maximal inhibition (IC50) (in general, the concentration needed to halve the response being measured) was 19.1 µM.

As for `O=C(CN1CCN(S(=O)(=O)c2ccc(Br)cc2)CC1)N/N=C/c1ccc(Br)s1`, the IC50 is 43 µM.

Regarding `Cc1ccc(NC(=S)Nc2ccc(Cl)c(Cl)c2)c(OC(F)F)c1`, the 50% inhibitory concentration (IC50) is 14 µM.

On to `Oc1ccccc1-c1csc(-c2ccccc2)n1`, for which the IC50 was 26.3 µM.

Consider `CCN(CC1COc2ccccc2O1)C(=S)Nc1ccccc1` (stereo not drawn), for which the IC50 is 64.8 µM.

Turning to `CCOC(=O)/C=C/C(=O)Nc1cccc([N+](=O)[O-])c1`, the 50% inhibitory concentration (IC50) is 7.03 µM.

With `C=CCNC(=S)NNc1nc2c(c(=O)[nH]1)C1(CCCCC1)Cc1ccccc1-2`, the IC50 is 40.3 µM.

On to `Nc1nc(Nc2ccccc2)nc2ccccc12`, for which the half-inhibitory concentration (IC50) was 28.1 µM.

Turning to `O=[N+]([O-])/C(C(Cl)=C(Cl)Cl)=C(\Sc1ccccc1)N1CCCCC1`, the 50% inhibitory concentration (IC50) was 53 µM.

With `COc1ccc(Cl)cc1NC(=S)NCc1ccco1`, the concentration for half-maximal inhibition (IC50) was 16.2 µM.

As to `O=C(NCCC1=CCCCC1)NC12CC3CC(CC(C3)C1)C2`, the half-maximal inhibitory concentration (IC50) is 50.7 µM.

`Oc1ccc(-c2nccc(-c3ccc(Cl)cc3)n2)cc1`: the 50% inhibitory concentration (IC50) was 24.6 µM.

Regarding `Cc1cccc(C2=NNC(=O)C(c3ccc(Cl)cc3)C2)c1` (stereo not drawn), the IC50 is 34 µM.

`Cc1ccc(-n2cc(-c3ccc([N+](=O)[O-])cc3)[nH]c2=S)c(C)c1`: the IC50 was 87.4 µM.

With `O=C(Nc1ccc(Cl)c(C(F)(F)F)c1)c1ccco1`, the IC50 was 28.7 µM.

As for `Oc1ccc(-c2nccc(-c3ccc(Cl)cc3Cl)n2)cc1`, the half-maximal inhibitory concentration (IC50) was 37.1 µM.

With `Cc1cccc(Nc2ncccc2C(=O)NCc2cccs2)c1C`, the IC50 was 53.3 µM.

Turning to `O=c1c2[nH]c3ccc(F)cc3c2nc2n1CCS2`, the half-inhibitory concentration (IC50) is 27.8 µM.

For `COc1cc2c(cc1OC)CN(C(=O)c1ccc(-c3ccccc3)cc1)CC2`, the IC50 is 47.3 µM.

In the case of `N/C(=C\C(=O)c1cc(Cl)ccc1O)C(Cl)(Cl)Cl`, the IC50 is 47.3 µM.

`COc1cccc(C(=O)CSc2nnnn2C2CCCCC2)c1`: the IC50 was 28.2 µM.

For the compound `Cc1cc(Nc2ccccc2Cl)nc(-c2ccccc2O)n1`, the IC50 is 33.2 µM.

On to `Cn1c(CSc2nnc(SCc3ccccc3)s2)nc2ccccc21`, for which the 50% inhibitory concentration (IC50) is 19.6 µM.

Turning to `Clc1ccc(Nc2nc(C3CC3)cs2)cc1`, the IC50 is 39.8 µM.

`COc1cccc(-c2csc(N3CCN(C(=S)Nc4ccccc4Cl)CC3)n2)c1`: the concentration for half-maximal inhibition (IC50) is 21.3 µM.

On to `CN(C)CCCN(C(=O)c1ccc(Cl)s1)c1nc2cc3c(cc2s1)OCO3`, for which the concentration for half-maximal inhibition (IC50) is 29.4 µM.

On to `CCCCCCC(=O)N(O)C1CC(=O)N(c2ccc(C)cc2)C1=O` (stereo not drawn), for which the IC50 is 12.2 µM.

Regarding `COc1ccc(/C(N)=N/OC(=O)CC2CCCCC2)cc1OC`, the IC50 is 24.2 µM.

Regarding `Cc1ccc(NC(=S)NNC(=O)CSc2nc3ccccc3c(=O)n2-c2ccc(C)cc2)cc1`, the IC50 was 44.9 µM.

As for `Cc1ccccc1/C=C/C(=O)c1ccc([N+](=O)[O-])o1`, the IC50 was 3.76 µM.

With `CSc1ccc(S(=O)(=O)NCc2ccccc2Cl)cc1`, the IC50 is 22.4 µM.

Consider `COc1ccc(N2C(=O)CC(Sc3nnc(-c4ccccc4)o3)C2=O)cc1` (stereo not drawn), for which the IC50 is 47.2 µM.

Regarding `CCn1c(=S)sc2c(=O)n(-c3ccccc3)c(SC)nc21`, the IC50 was 68.4 µM.

As for `COC(=O)c1ccc(N2C(=O)CC(N(C)CCc3ccc(OC)c(OC)c3)C2=O)cc1` (stereo not drawn), the IC50 was 18.6 µM.

On to `N/C(=N\OC(=O)c1cccnc1)c1ccc(Cl)cc1Cl`, for which the IC50 is 17.8 µM.

In the case of `O=C(NNC(=S)Nc1cccc(C(F)(F)F)c1)c1cccc(Cl)c1`, the IC50 is 10 µM.

For `COc1ccc2[nH]c3c(=O)n4c(nc3c2c1)SCC4`, the IC50 was 79.9 µM.

On to `Cc1ccc(N2C(=O)CC(Sc3cccs3)C2=O)cc1` (stereo not drawn), for which the IC50 was 24 µM.

Regarding `O=c1c2ccccc2[se]n1-c1ccccc1`, the half-maximal inhibitory concentration (IC50) was 10 µM.

As to `CC(C)C(=O)N1CCN(c2ccccc2NC(=O)c2ccc([N+](=O)[O-])o2)CC1`, the half-maximal inhibitory concentration (IC50) is 11.5 µM.

Consider `O=C1CC(Sc2cccs2)C(=O)N1c1ccccc1` (stereo not drawn), for which the half-inhibitory concentration (IC50) was 30.7 µM.

Regarding `CC(CC(=O)Nc1ncc([N+](=O)[O-])s1)c1ccccc1` (stereo not drawn), the concentration for half-maximal inhibition (IC50) was 18.5 µM.

Consider `O=C(/C(N=Nc1cccc(C(F)(F)F)c1)=C(/O)c1cccs1)C(F)(F)F`, for which the IC50 was > 100 µM (inactive).

As to `CC1=NN(c2nc(-c3ccc(Cl)cc3)cs2)C(=O)C1`, the IC50 is 33.5 µM.

For the compound `Cc1ccc(C(=O)NC(=S)Nc2ccccc2C)cc1`, the concentration for half-maximal inhibition (IC50) is 44.5 µM.

In the case of `CC1(C)CC2CC(C)(CN2C(=S)NC(=O)c2ccccc2Cl)C1` (stereo not drawn), the concentration for half-maximal inhibition (IC50) was 59.9 µM.

As to `CN(C)CCCN(C(=O)c1cc2cc([N+](=O)[O-])ccc2s1)c1nc2cc3c(cc2s1)OCCO3`, the 50% inhibitory concentration (IC50) is 13.7 µM.

Regarding `Nc1nc(Cl)cc(N2CCC(c3cc(-c4ccc(Cl)cc4)n[nH]3)CC2)n1`, the IC50 is 17.8 µM.

As for `COc1ccc(N2CCN(C(=O)Nc3cccc(C(F)(F)F)c3)CC2)cc1`, the half-maximal inhibitory concentration (IC50) is 29.1 µM.

Consider `CCc1c(C)c2c(C)nn(-c3ccccc3)c2oc1=O`, for which the IC50 is 17.2 µM.

As to `C=CCc1cccc(CNc2ccc(Br)cc2)c1O`, the IC50 was 21.8 µM.

`CC(=O)N1CCN(c2cc(N3CCc4ccccc4C3)c(F)cc2[N+](=O)[O-])CC1`: the concentration for half-maximal inhibition (IC50) was 9.9 µM.

As to `Fc1ccccc1CNc1ccc(Cl)c(Cl)c1`, the half-maximal inhibitory concentration (IC50) was 26.9 µM.

As to `C=C(C)COc1ccc(-c2[nH]ncc2Oc2ccccc2OC)c(O)c1`, the IC50 is > 100 µM (inactive).

On to `COC(=O)c1cccc(Nc2cc(C)nc(-c3ccccc3O)n2)c1`, for which the IC50 is > 100 µM (inactive).

`CCCN(Cc1ccccc1)C(=S)Nc1cccc(C(F)(F)F)c1`: the IC50 is 66.1 µM.

As to `Cc1cc(N/N=C/c2ccccc2O)nc(-c2ccccc2O)n1`, the IC50 is 76.6 µM.

As to `Cc1ccc(-c2csc3ncnc(Nc4ccc(N5CCOCC5)cc4)c23)cc1`, the IC50 was 53.4 µM.

Consider `COc1ccc2nc(/N=C(\N)NC(=O)Nc3ccccc3)nc(C)c2c1`, for which the concentration for half-maximal inhibition (IC50) is 47.3 µM.

Consider `N#Cc1ccccc1Cn1c(=O)n(C2CCCC2)c(=O)c2ccccc21`, for which the IC50 is 25.4 µM.

In the case of `COc1ccc(/C(C)=N/NC(=S)NCCc2ccccc2)cc1`, the IC50 was 5.69 µM.

Turning to `CCOC(=O)c1ccc(N2C(=O)C=CC2=O)cc1`, the IC50 was 2.75 µM.

For the compound `COc1cccc(/C=C2\N=C(C3CCCCC3)OC2=O)c1OC`, the IC50 is 36.3 µM.

For `O=C1CS(=O)(=O)N(Cc2cccc(F)c2)c2ccc(Br)cc21`, the IC50 is 5.54 µM.

For the compound `CC1CCN(C(=S)c2cn(Cc3ccccc3F)c3ccccc23)CC1`, the 50% inhibitory concentration (IC50) is 35.4 µM.

For `Cc1ccc(-c2csc(-c3c[nH]c4ccccc34)n2)cc1`, the concentration for half-maximal inhibition (IC50) is 25.4 µM.

As for `O=C1C2C(c3ccccc3)CC=CC2[C@H](c2ccc3ccccc3c2)N1Cc1ccccc1` (stereo partly drawn), the IC50 was 22.9 µM.

In the case of `CCCc1[nH]c2ccc(C#N)cc2c1CCC`, the IC50 was 41.3 µM.

In the case of `Cc1cc(Cl)ccc1OCC(=O)Nc1nc(-c2cccs2)cs1`, the IC50 is > 100 µM (inactive).

As for `C/C(CC(=O)Nc1ccc(N(C)C)cc1)=N\NC(=O)c1ccccn1`, the IC50 is 54.5 µM.

`CC(C)CN(CC(C)C)C(=S)Nc1ccc(Cl)cc1`: the IC50 was 15.6 µM.

Turning to `CCCOc1ccc(N2C(=O)CC(N3CCC(O)(c4cccc(C(F)(F)F)c4)CC3)C2=O)cc1` (stereo not drawn), the half-maximal inhibitory concentration (IC50) is 13 µM.

Consider `N/C(=N\OC(=O)CCCc1ccccc1)c1ccc([N+](=O)[O-])cc1`, for which the concentration for half-maximal inhibition (IC50) is 28.5 µM.

Take `c1ccc(-c2cc(-c3nc4ccccc4[nH]3)c3ccccc3n2)cc1`: the half-inhibitory concentration (IC50) is 49.6 µM.

In the case of `COc1cc(C(=O)Nc2ccc(Nc3ccccc3)cc2)cc(OC)c1OC`, the IC50 was > 100 µM (inactive).

Consider `COc1ccc(C(=O)O/N=C(\N)Cc2ccc(Cl)c(Cl)c2)cc1OC`, for which the half-inhibitory concentration (IC50) is 0.76 µM.

In the case of `CCCCNC(=S)Nc1ccc(C(F)(F)F)cc1`, the IC50 was 18.3 µM.

For `Clc1ccc(-c2nc3cnccn3c2Nc2ccc3c(c2)OCO3)cc1`, the half-inhibitory concentration (IC50) is 29.9 µM.

Consider `CN(C)S(=O)(=O)c1cccc(NC(=O)COc2cccc3ccccc23)c1`, for which the IC50 was > 100 µM (inactive).

Turning to `CCN1CCN(C(c2cccnc2)c2cc(Cl)c3cccnc3c2O)CC1` (stereo not drawn), the half-inhibitory concentration (IC50) was 18 µM.

With `O/N=C(\c1ccc(Cl)cc1Cl)c1ncc(C(F)(F)F)cc1Cl`, the IC50 was 19.6 µM.

Regarding `CC1CCN(c2ccccc2NC(=S)NC(=O)C(C)(C)C)CC1`, the IC50 is 75.8 µM.

As for `CC(C)c1ccc(S(=O)(=O)N2CCN(CC(=O)Nc3ccc4c(c3)OCO4)CC2)cc1`, the half-maximal inhibitory concentration (IC50) is 75.4 µM.

Consider `CCOC(=O)N1CCN(S(=O)(=O)c2ccc3c(c2)CCN3C(=O)C2CCC2)CC1`, for which the IC50 is 34.2 µM.

For `COc1ccc(/C=C2\CCc3ccccc3C2=O)cc1Cn1cccn1`, the IC50 was 25.6 µM.

Take `CCC(=O)Oc1ccc(-c2nc(-c3cccnc3)no2)cc1`: the IC50 is 43.4 µM.

`O=C(Cc1ccccc1)N/N=C/c1ccc2cccc(O)c2n1`: the IC50 is > 100 µM (inactive).

For the compound `CCOc1ccccc1C(=O)Nc1cc(OC)ccc1OC`, the IC50 is 35.1 µM.

For `C=CC(=O)Oc1ccc(N2Cc3ccccc3C2=O)cc1`, the IC50 is 7.16 µM.

As for `CC(C)Cn1c2c(c(O)c(C(=O)Nc3nccs3)c1=O)CCCC2`, the IC50 is 96.8 µM.

Turning to `CC(C)(C)C(=O)Nc1nnc(SCc2ccc(F)cc2)s1`, the concentration for half-maximal inhibition (IC50) is 42.2 µM.

For the compound `CCC(=NCc1ccccc1)c1c(C(F)(F)F)[nH]n(-c2nc3ccccc3s2)c1=O`, the IC50 is > 100 µM (inactive).

On to `Cc1csc(NC(=O)c2nc(-c3ccccc3)n(-c3ccccc3)n2)n1`, for which the IC50 is 31.7 µM.

For `COc1ccccc1C/C(N)=N/OC(=O)COc1ccccc1C`, the 50% inhibitory concentration (IC50) was 38 µM.

Take `COc1cccc2sc(Nc3nc(-c4ccccn4)cs3)nc12`: the IC50 was 20.2 µM.

`Cc1cc(N)n2ncc(-c3ccc(F)cc3)c2n1`: the IC50 is 36 µM.

Consider `CC(Oc1ccc(Cl)cc1Cl)C(=O)NC1=NN(c2ccccc2)C(=O)C1` (stereo not drawn), for which the half-inhibitory concentration (IC50) was 15.2 µM.

For `O=C(Nc1cccc(Cl)c1)N1N=CCC1c1ccccc1` (stereo not drawn), the 50% inhibitory concentration (IC50) is 29.6 µM.

With `COc1ccc(CCNC(=O)NC23CC4CC(CC(C4)C2)C3)cc1`, the IC50 was 51 µM.

For `O=C(OCn1ncc(Br)c(Br)c1=O)c1ccc(F)cc1`, the IC50 is 3.3 µM.

On to `O=S(=O)(c1ccc(N2CCC(c3ccc(Cl)cc3)=N2)cc1)N(CCO)CCO`, for which the 50% inhibitory concentration (IC50) is 20.7 µM.

Take `COc1ccc(/C(N)=N/OC(=O)c2cccs2)cc1OC`: the IC50 is 42.8 µM.

As for `COc1ccc(C2(O)CC3CCC(C2)N3c2cc(C)nc(-c3ccccc3)n2)cc1` (stereo not drawn), the half-inhibitory concentration (IC50) was 18.2 µM.
